Holding throughout (assay type): cell-based
Experiment [1] concerns KB/HeLa (human cervix carcinoma) cells. Briefly: XTT cytotoxicity assay, KB/HeLa cells. Particulars: read-out: KB/HELA [IC50 (μM)]. The protocol: (§1) Cytotoxicity of selected compounds of the invention against different mammalian cell lines was assessed as follows.
(§2) Human tumor cell lines KB/HeLa (ATCC CCL17, human cervix carcinoma), PC3 (ATCC CRL1435, human prostate carcinoma) and RKOp21 (human colon adenocarcinoma; Schmidt et al., Oncogene 2000, 19: 2423-2429) cells were used in an automated XTT screening assay for the assessment of cytotoxicity.
(§3) The XTT assay quantifies cellular metabolic activity which correlates with cell viability and cell number. Test compounds (selected compounds of the invention and known substances as controls) are dissolved in culture medium at 600 μM and added to the tumor cells in 10 different concentrations in a semi-logarithmic fashion starting from 100 μM as highest concentration.
(§4) 48 h later cellular metabolic activity of cells treated with test compounds is quantified by measurement of the absorbance at 490 nm (conversion of XTT dye) in comparison to untreated control cells (100% viability).
(§5) KB/HeLa and PC3 cells were cultivated in RPMI 1640 medium (Gibco, Cat. No. 42401-018) supplemented with 10% heat inactivated fetal calf serum (FCS, Biochrom AG, Cat. No. S0115), 2 mM L-glutamine (Gibco, Cat. No. 25030-24) and 2% Penicillin-Streptomycin (PenStrep, Gibco, Cat. No. 15140-122). RKOp21 cells were grown in DMEM+GlutaMAXTM-I medium (Gibco, Cat. No. 61965-026) supplemented with 10% heat inactivated fetal calf serum (FCS, Biochrom AG, Cat. No. S0115), 2 mM L-glutamine (Gibco, Cat. No. 25030-24), 2% Penicillin-Streptomycin (PenStrep, Gibco, Cat. No. 15140-122) and 1% 1M HEPES (Gibco, Cat. No. 15630-056). All cells were cultured at 37° C. in 5% CO2 humidified air.
(§6) On the first day of the experiment cells were harvested from exponential phase cultures by trypsination, counted and plated into 96 well flat-bottom micro titer plates depending on the cell line as listed below:
(§7) After a 24 h recovery to allow the cells to resume exponential growth, the test compounds were diluted immediately prior to use and transferred in 25 μl volume to the wells.
(§8) Following 2 days of continuous drug exposure 50 μl of freshly prepared XTT-PMS solution {2% 0.386 mg/ml PMS (N-Methyl Dibenzopyrazine Methylsulphate; Sigma, Cat. No. P9625) in PBS+98% 1 mg/ml XTT (Sodium 2,3-bis(2-methoxy-4-nitro-5-sulfophenyl)-5-[(phenylamino)carbonyl]-2H-Tetrazolium; Serva, Cat. No. 38450) in RPMI 1640 medium without phenol red} was added to the wells. To measure the proportion of living cells, the cells were incubated for 3 h with XTT-PMS reagent at 37° C., 5% CO2, humidified atmosphere allowing to form the formazan salt. The amount of soluble formazan salt produced by cellular reduction of XTT is quantified by measuring the absorbance at 490 nm using the Biomek® 2000 ELISA plate reader. %-inhibition (cytotoxicity) of each test compound was calculated in relation to untreated control cells. Inhibition curves were generated and IC50 values calculated by using GraphPad Prism.

For experiment [2], the system named is PC3 (human prostate carcinoma) cells. The experiment in a line: XTT cytotoxicity assay, PC3 cells. The conditions noted are these: read-out: PC3 [IC50 (μM)]. Here is the method: as §1, §2, §3
(§9) In a second set of experiments employing PC3, RKOp21 and SKOV-3 (ATCC HTB-77, human ovary adenocarcinoma) cells, test and reference compounds were dissolved in 70% Ethanol/30% H2O in a stock concentration of 10 mM and diluted in cell culture medium to yield either 31.6 μM (PC3 and RKOp21) or 100 μM (SKOV-3) final concentration.
as §4, §5, §6, §7, §8

In experiment [3] the test system is RKOp21 (human colon adenocarcinoma) cells. Briefly: XTT cytotoxicity assay, RKOp21 cells. The conditions noted are these: read-out: RKOp21 [IC50 (μM)]. Here is the method: as §1, §2, §3, §9, §4, §5, §6, §7, §8
On the technique in general: Tetrazolium assays rely on reduction of a dye to a coloured formazan, in cell work by metabolically active cells.

The mark [4] stands for this setting: Homo sapiens, HeLa, XTT, 48 h exposure.
[5] abbreviates: Homo sapiens, PC-3, XTT, 48 h exposure.
Setting [6] is: Homo sapiens, XTT, 48 h exposure.

Like-named read-outs stand apart in the source and are kept apart here. Some results are limits rather than exact numbers.

Turning to `CCCCCCCCC#CCCCCCCCCOP(=O)([O-])OCC[N+]1(C)CCCCC1` [Compound 145], the IC50 in experiment [1] (setting [4]), in experiment [2] (setting [5]) and in experiment [3] (setting [6]) was > 100 µM in each case.
In the case of `CCCCCCCCCCCCCCCCCCOP(=O)([O-])OCCN1CC[N+](C)(C)CC1` [Compound 154], the IC50 in experiment [1] (setting [4]) came out at 12.6 µM; in experiment [2] (setting [5]), 18.2 µM; in experiment [3] (setting [6]) it was 77.4 µM.
The matching figures for `CCCCCCCCCCOCCOCCOP(=O)([O-])OCC[N+](C)(C)C` [Compound 123]: 39.1 µM, 21.8 µM and 76.6 µM.
On the same counts, the results for `CC(C)CCCC(C)C1CCC2C3=CC=C4CC(OP(=O)([O-])OCC[N+](C)(C)C)CCC4(C)C3CCC21C` (stereo not drawn) [Compound 48] are > 100 µM, > 100 µM and > 100 µM.
On the same counts, the results for `CCCCCCCCCCCCCCCCOP(=O)([O-])OC1CC[N+](CC)(CC)CC1` [Compound 200] are 66.4 µM, 34.5 µM and > 100 µM.
With `CCCCCCCC/C=C\CCCCCCCCCCCCOP(=O)([O-])OCC[N+]1(C)CCC(O)CC1` (stereo not drawn) [Compound 133], the IC50 in experiment [1] (setting [4]) was > 100 µM; in experiment [2] (setting [5]), 81.6 µM; in experiment [3] (setting [6]) it was > 100 µM.
In the case of `CCCCCCCC/C=C\CCCCCCCCOP(=O)([O-])OCC[N+](C)(C)CC` [Compound 82], the figures for the IC50 in experiment [1] (setting [4]), in experiment [2] (setting [5]) and in experiment [3] (setting [6]) were 37.7 µM, 45.6 µM and 20.5 µM, respectively.
For `CCCCCCCCCCCCCCCCOP(=O)([O-])OCC[n+]1cccc(C(=O)OCC)c1` [Compound 190], the IC50 is 100 µM in experiment [1] (setting [4]), 73.3 µM in experiment [2] (setting [5]) and > 100 µM in experiment [3] (setting [6]).
The matching figures for `CCCCCCCCCCCCCCCCOP(=O)(O)OCCN1CCOCC1` [Compound 60]: > 100 µM, > 100 µM and > 100 µM.
`C[C@H](CCC(=O)O)[C@H]1CCC2[C@@H]3CC[C@@H]4C[C@H](OP(=O)([O-])OCC[N+](C)(C)C)CC[C@]4(C)[C@H]3CC[C@@]21C` (stereo partly drawn) [Compound 59]: the IC50 in experiment [1] (setting [4]), in experiment [2] (setting [5]) and in experiment [3] (setting [6]) was > 100 µM each time.
Take `CCC(C)CC(C)CC(C)CC(C)COP(=O)([O-])OC1CC[N+](C)(C)CC1` (stereo not drawn) [Compound 258]: the IC50 in experiment [1] (setting [4]), in experiment [2] (setting [5]) and in experiment [3] (setting [6]) was > 100 µM throughout.
Consider `CCCCCCCC/C=C\CCCCCCCC(=O)OCC(COP(=O)([O-])OCC[As+](C)(C)C)OC(=O)CCCCCCC/C=C\CCCCCCCC` (stereo not drawn) [Compound 311], for which the IC50 in experiment [1] (Homo sapiens, HeLa, 48 h) is > 100 µM; in experiment [2] (Homo sapiens, PC-3, 48 h), > 100 µM; in experiment [3] (Homo sapiens, 48 h) it was > 100 µM.
Turning to `CCCCCCCC/C=C\CCCCCCCCOP(=O)([O-])OCC[N+]1(C)CCCCC1` [Compound 97], the IC50 in experiment [1] (setting [4]) is > 100 µM; in experiment [2] (setting [5]), 49.4 µM; in experiment [3] (setting [6]), 89.4 µM.
On the same counts, the results for `CCCCCCCC/C=C\CCCCCCCCCCCCOP(=O)([O-])OC1CC[N+](CC)(CC)CC1` [Compound 203] are > 100 µM, 63.1 µM and > 100 µM.
On the same counts, the results for `CCCCCCCCCCCCCCCCOP(=O)([O-])OC1C[N+]2(C)CCC1CC2` (stereo not drawn) [Compound 76] are 11.3 µM, 25 µM and 68.8 µM.
The matching figures for `CC(C)CCCC(C)C1CCC2C3CC=C4CC(OP(=O)([O-])OCC[N+](C)(C)C)CCC4(C)C3CCC12C` (stereo not drawn) [Compound 46]: > 100 µM, > 100 µM and > 100 µM.
As to `CC(C)CCCC(C)C1CCC2C3CCC4CC(OP(=O)([O-])OCC[N+](C)(C)C)CCC4(C)C3CCC12C` (stereo not drawn) [Compound 41], the IC50 in experiment [1] (setting [4]), in experiment [2] (setting [5]) and in experiment [3] (setting [6]) was > 100 µM throughout.
With `CCCCC/C=C\C/C=C\CCCCCCCCOP(=O)([O-])OCC[N+](C)(C)C` [Compound 55], the IC50 in experiment [1] (setting [4]), in experiment [2] (setting [5]) and in experiment [3] (setting [6]) was > 100 µM throughout.
For the compound `CCCCCCCCCCCCCCCCOP(=O)([O-])OCC1CC[N+](C)(C)CC1` [Compound 153], the values for the IC50 in experiment [1] (setting [4]), in experiment [2] (setting [5]) and in experiment [3] (setting [6]) were 38.2 µM, 39.8 µM and > 100 µM, respectively.
The matching figures for `CCCCCCCC/C=C\CCCCCCCCOCCOCCOP(=O)([O-])OC1CC[N+](C)(C)CC1` [Compound 256]: > 100 µM, 82 µM and > 100 µM.
As for `CCCCCCCC/C=C\CCCCCCCCCCCCOP(=O)([O-])OC1CCC[N+](C)(CCc2ccccc2)CC1` (stereo not drawn) [Compound 185], the values for the IC50 in experiment [1] (setting [4]), in experiment [2] (setting [5]) and in experiment [3] (setting [6]) were > 100 µM, 30.4 µM and > 100 µM, respectively.
As for `CCC(C)CC(C)CC(C)CC(C)COP(=O)([O-])OCC[N+](C)(C)C` (stereo not drawn) [Compound 235], the IC50 in experiment [1] (setting [4]), in experiment [2] (setting [5]) and in experiment [3] (setting [6]) was > 100 µM in each case.
In the case of `CCCCCCCC/C=C\CCCCCCCCOP(=O)([O-])OCC[N+]1(C)CCCC1` [Compound 91], the IC50 is > 100 µM in experiment [1] (setting [4]), 86.8 µM in experiment [2] (setting [5]) and > 100 µM in experiment [3] (setting [6]).
Take `CCCCCCCCCCCCCCCCCCCCOP(=O)([O-])OC1CCC[N+](C)(C)CC1` (stereo not drawn) [Compound 86]: the IC50 in experiment [1] (setting [4]) is 75.6 µM; in experiment [2] (setting [5]), > 100 µM; in experiment [3] (setting [6]), > 100 µM.
As to `CCCCCCCC/C=C\CCCCCCCCCCCCOP(=O)([O-])OCC[N+](CC)(CC)CC` [Compound 275], the figures for the IC50 in experiment [1] (setting [4]), in experiment [2] (setting [5]) and in experiment [3] (setting [6]) were > 100 µM, 69.2 µM and 44.4 µM, respectively.
On the same counts, the results for `CCCCCCC1CCC(CCOP(=O)([O-])OCC[N+]2(C)CCCCC2)CC1` (stereo not drawn) [Compound 180] are > 100 µM, > 100 µM and > 100 µM.
As to `CCCCCCCCCCCCCCCCCCOP(=O)([O-])OCc1cccc[n+]1C` [Compound 147], the IC50 in experiment [1] (setting [4]), in experiment [2] (setting [5]) and in experiment [3] (setting [6]) was > 100 µM in each case.
Regarding `CCCCCCCC/C=C\CCCCCCCCCCCCOP(=O)([O-])OCCC1=C(C)[N+](C)=CC1` [Compound 172], the IC50 was > 100 µM in experiment [1] (setting [4]), 29.8 µM in experiment [2] (setting [5]) and 65.5 µM in experiment [3] (setting [6]).
The matching figures for `CCCCCCCCCCCCCCCCCCOP(=O)([O-])OCC1CC[N+](C)(C)CC1` [Compound 152]: 32.3 µM, 23.9 µM and > 100 µM.
The matching figures for `CCCCCCCCCCCCCCCCOP(=O)(O)OCCN1CCCC1` [Compound 63]: > 100 µM, > 100 µM and > 100 µM.
For the compound `CCCCCCCC/C=C\CCCCCCCCCCCCOP(=O)([O-])OCC[As+](CC)(CC)CC` [Compound 159], the IC50 was > 100 µM in experiment [1] (XTT, 48 h exposure); 37.7 µM in experiment [2] (XTT, 48 h exposure); 21 µM in experiment [3] (XTT, 48 h exposure).
For the compound `C#CC[N+]1(C)CCC(OP(=O)([O-])OCCCCCCCCCCCCCCCC)CC1` (stereo not drawn) [Compound 262], the IC50 was 10.1 µM in experiment [1] (setting [4]), 31.2 µM in experiment [2] (setting [5]) and > 100 µM in experiment [3] (setting [6]).
